Read-outs that look alike come from different tables or passages of the source.
What was measured:
[1] = test system: human neutrophils; assay: Human neutrophil oxidative activity, luminol-enhanced chemiluminescence; type: cell-based; conditions: for PMN oxid + roli (-log EC50): human neutrophil experiment w/Rolipram; for EC50: Homo sapiens, Neutrophil, read-out: PMN oxid (-log EC50) (converted)
Method in brief: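 Purified human neutrophils (5–10×10^5/ml) pre-incubated 30 min at 37 °C with the A2A agonist, ± rolipram and ± TNF-α (1 U/ml), then stimulated with fMLP (1 μM final). Peak luminol-enhanced chemiluminescence expressed as percent of no-agonist control. EC50 from three donors.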

[2] = molecular target: T1, human A1 AR (Homo sapiens, UniProt P30542); assay: Radioligand competition binding (125I-ABA) to human A1 AR in CHO K1 cell membranes; conditions: for Ki: Ki from competition binding, 125I-ABA, CHO K1 cell membranes; for A1/A2A: selectivity ratio A1 over A2A
T1 sequence (P30542 1-326): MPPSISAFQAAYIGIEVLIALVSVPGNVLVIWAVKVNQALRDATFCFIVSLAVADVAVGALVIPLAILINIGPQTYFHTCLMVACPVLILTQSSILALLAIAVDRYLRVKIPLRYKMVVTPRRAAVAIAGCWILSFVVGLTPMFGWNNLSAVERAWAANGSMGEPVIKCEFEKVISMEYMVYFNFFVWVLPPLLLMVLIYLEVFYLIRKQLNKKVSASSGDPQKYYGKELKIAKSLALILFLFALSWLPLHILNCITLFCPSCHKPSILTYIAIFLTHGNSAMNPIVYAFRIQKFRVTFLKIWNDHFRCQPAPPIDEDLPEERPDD
Description: (§1) Sf9 cells were cultured in Grace's medium supplemented with 10% fetal bovine serum, 2.5 μg/ml amphotericin B and 50 μg/ml gentamycin in an atmosphere of 50% N2/50% O2. […] Infected cells were harvested 3 days post-infection and washed twice in insect PBS (PBS pH 6.3). Cells were then resuspended in lysis buffer (20 mM HEPES pH 7.5, 150 mM NaCl, 3 mM MgCl2, 1 mM β-mercaptoethanol (BME), 5 μg/mL leupeptin, 5 μg/mL pepstatin A, 1 μg/mL aprotinin, and 0.1 mM PMSF) and snap frozen for storage at −80° C. Cells were thawed on ice, brought to 30 mL total volume in lysis buffer, and burst by N2 cavitation (600 psi for 20 minutes). A low-speed centrifugation was performed to remove any unlysed cells (1000×g for 10 minutes), followed by a high-speed centrifugation (17,000×g for 30 minutes). The pellet from the final centrifugation was homogenized in buffer containing 20 mM HEPES pH 8, 100 mM NaCl, 1% glycerol, 2 μg/mL leupeptin, 2 μg/mL pepstatin A, 2 μg/mL Aprotinin, 0.1 mM PMSF, and 10 μM GDP using a small glass homogenizer followed by passage through a 26 gauge needle. Membranes were aliquoted, snap frozen in liquid N2, and stored at −80° C.
(§2) Binding experiments were performed in triplicate with 5 μg (A2A) or 25 μg (A1 and A3) membrane protein in a total volume of 0.1 mL HE buffer (20 mM HEPES and 1 mM EDTA) with 1 U/mL adenosine deaminase and 5 mM MgCl2 with or without 50 μM GTPγS. Membranes were incubated with radioligands at room temperature for three hours (for agonists) or two hours (for antagonists) in Millipore Multiscreene® 96-well GF/C filter plates and assays were terminated by rapid filtration on a cell harvester (Brandel, Gaithersburg, Md.) followed by 4×150 μl washes over 30 seconds with ice cold 10 mM Tris-HCl, pH 7.4, 10 mM MgCl2.

[3] = molecular target: T2, A3 AR (Homo sapiens, UniProt P0DMS8); assay: Radioligand competition binding (125I-ABA) to human A3 AR in HEK 293 cell membranes; conditions: for Ki: Ki from competition binding, 125I-ABA, HEK 293 cell membranes; for A3/A2A: selectivity ratio A3 over A2A
T2 sequence (P0DMS8 1-318): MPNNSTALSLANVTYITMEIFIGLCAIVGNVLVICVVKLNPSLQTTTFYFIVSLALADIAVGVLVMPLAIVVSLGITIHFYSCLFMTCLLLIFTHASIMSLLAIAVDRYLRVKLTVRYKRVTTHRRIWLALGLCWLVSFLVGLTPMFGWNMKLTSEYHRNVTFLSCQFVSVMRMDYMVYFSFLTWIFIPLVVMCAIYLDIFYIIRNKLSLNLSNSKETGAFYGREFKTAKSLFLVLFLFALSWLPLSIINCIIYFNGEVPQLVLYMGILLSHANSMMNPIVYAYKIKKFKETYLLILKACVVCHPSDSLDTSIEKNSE
Description: as §1, §2

[4] = molecular target: recombinant human A2A receptors (Homo sapiens, UniProt P29274); assay: Radioligand competition binding to recombinant human A2A receptors in Sf9 cell membranes; conditions: Ki from competition binding, Sf9 cell membranes
Description: as §1, §2

[5] = test system: liver ischemia/reperfusion injury; assay: Liver ischemia/reperfusion injury, serum GPT; type: in vivo, Mice; conditions: administered 6 hours prior to I/R injury; serum GPT 24 hours later; vs. a control compound and ATL146e; FIG. 17
Description: Mice were anesthetized by intraperitoneal injection of ketamine 100 mg/kg and xylazine 10 mg/kg. Glycopyrrolate (Robinul-V™) 0.05 mg/kg was delivered subcutaneously before the operation. The ambient temperature was controlled in the range of 24° C. to 26° C. Mice were placed on a 37° C. heat pad with their core temperature monitored by a TH-8 Thermalert™ Monitoring Thermometer (Physitemp) and maintained at 36-37° C. by a TCAT-1A Temperature Control and Alarm Unit (Physitemp) during the entire procedure. After midline laparotomy, a microaneurysm clip was applied to the hepatic triad above the bifurcation to clamp the flow of the hepatic artery, portal vein, and bile duct. […]
Serum GPT (ALT) levels were measured using a Transaminase kit (505, Sigma). Briefly, 20 μL serum sample was mixed with 100 (L pre-heated Alanine-α-KG substrate and incubated in a 37° C. water bath for 30 minutes. Then we added 100 (L Sigma Color Reagent to the reaction and left it at room temperature for 20 minutes. We stopped the reaction with 1.0 ml 0.4N sodium hydroxide solution. Absorbance of each sample at 505 nm was measured and converted into SF unit/ml.
The test compounds were administered 6 hours prior to I/R injury. Tissue protection is measured by amount of Serum GPT present in the in a serum sample 24 hours later, with smaller GPT concentrations indicating better liver function.

[6] = human neutrophil experiment w/o Rolipram

Chain of recombinant human A2A receptors (P29274 whole entry, the tested form may be a part): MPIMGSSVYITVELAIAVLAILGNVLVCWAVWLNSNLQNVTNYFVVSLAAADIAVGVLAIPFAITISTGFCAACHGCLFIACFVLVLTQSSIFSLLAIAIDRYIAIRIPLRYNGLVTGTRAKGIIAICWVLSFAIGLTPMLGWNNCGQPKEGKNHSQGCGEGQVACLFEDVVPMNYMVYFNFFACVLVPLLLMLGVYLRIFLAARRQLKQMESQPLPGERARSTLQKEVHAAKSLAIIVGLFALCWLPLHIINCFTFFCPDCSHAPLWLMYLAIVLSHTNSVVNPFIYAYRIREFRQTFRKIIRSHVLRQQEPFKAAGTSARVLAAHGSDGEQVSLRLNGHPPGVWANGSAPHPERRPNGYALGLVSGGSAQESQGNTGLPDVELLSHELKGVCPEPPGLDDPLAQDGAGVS

Compound | PMN oxid + roli (-log EC50) [1] | PMN oxid (-log EC50) [1, 6] | Ki ([2]; read-out: A1 ± SEM) [nM] | A1/A2A [2] | Ki ([3]; read-out: A3 ± SEM) [nM] | A3/A2A [3] | Ki ([4]; read-out: A2A ± SEM) [nM] | EC50 [1, 6] [nM] | Ki ([2]; A1 ± SEM) [nM] | Ki ([3]; A3 ± SEM) [nM] | Ki ([4]; A2A ± SEM) [nM] | duration of action for liver tissue protection (Serum GPT) [5]
CC(=O)OCC1CCC(CC#Cc2nc(N)c3ncn(C4OC(CO)C(O)C4O)c3n2)CC1 (stereo not drawn) [JR-2147] | 8.57 | 7.13 | 17.5 ± 5.2 | 19.0 | 89 ± 21 | 96.7 | 0.9 ± 0.38 |  |  |  |  | 
CCNC(=O)[C@H]1O[C@@H](n2cnc3c(N)nc(C#CCN4CCN(c5ncccn5)CC4)nc32)C(O)C1O (stereo in doubt) [JR-3283, 5-{6-Amino-2-[3-(4-pyrimidin-2-yl-piperazin-1-yl)-prop-1-ynyl]-purin-9-yl}-3,4-dihydroxytetrahydrofuran-2-carboxylic acid ethylamide] |  |  |  | 4.6 |  | 19.0 |  | 5.75 | 15.3 ± 0.4 | 66.2 | 2 ± 0.25 | 
CCNC(=O)[C@H]1O[C@@H](n2cnc3c(N)nc(C#C[C@]4(O)CCC[C@@H](C)C4)nc32)C(O)C1O (stereo in doubt) [JR-3223, 5-[6-Amino-2-(1-hydroxy-3-methylcyclohexylethynyl)purin-9-yl]-3,4-dihydroxytetrahydrofuran-2-carboxylic acid ethylamide] | 10.15 |  |  | 5.2 |  | 0.8 |  | 0.339 | 4.8 ± 0.3 | 0.7 ± 0.02 | 0.92 ± 0.2 | longer duration of action

— patent US7737127B2, “2-propynyl adenosine analogs having A2A agonist activity and compositions thereof” (University of Virginia Patent Foundation, priority 2001, dated 2010)
